# Data reported in paper PMC5244392, “Interspecies cathelicidin comparison reveals divergence in antimicrobial activity, TLR modulation, chemokine induction and regulation of phagocytosis” (Scientific Reports, 2017).
# Experiments:
# Assay type in all cases: cell-based, murine
# [1] = tested on: CCL2 (MCP-1) release by RAW264.7 cells; assay: Cathelicidin induced CCL2 release; details: for Summary class, chemokines CCL2 (2 h): 2 h stimulation, − = no significant effect, N = 3
# Procedure: (§1) E. coli O78 (Zoetis Animal Health, Kalamazoo, MI, USA), E. coli ATCC 25922, Staphylococcus aureus ATCC 29213, and methicillin resistant Staphylococcus aureus (MRSA) (WKZ-2, human clinical isolate) were grown overnight from a glycerol stock in Mueller Hinton Broth (MHB) (Becton Dickinson, USA). Before use, bacteria were grown to mid-log phase in MHB for 2 hours at 37 °C, 200 RPM. Murine RAW264.7 macrophages (ATCC-TIB-71) were obtained from the American Type Culture Collection (ATCC, Manassas, VA, USA) and cultured in DMEM (41966-029; Thermo Fisher Scientific, Waltham, MA, USA) supplemented with 10% FCS (Bodinco B.V., Alkmaar, the Netherlands) (DMEM + FCS) at 37 °C, 5.0% CO2. Cells were seeded in 96-wells plates at 5 × 10^5 cells/ml or 12-wells plates at 2 × 10^5/ml for adherence overnight prior to stimulation.
# (§2) ELISA Duoset kits for mouse TNFα, CCL5, CXCL10 and IL-10 were obtained from R&D systems (Minneapolis, MN, USA) and ELISAs were performed according to the manufacturer’s protocol. Samples were stored at −20 °C until analysis and, if needed, diluted in 1% BSA in PBS, pH 7.4. Absorbance at 450 nm was determined in a FLUOstar Omega microplate reader (BMG Labtech GmbH) and corrected for absorbance at 570 nm. Results were analyzed with MARS data analysis software (BMG Labtech GmbH).
# (§3) Since cathelicidins have membrane-perturbing properties which might affect the host’s cell membrane, first the possible cytotoxicity of the cathelicidins to RAW264.7 cells was assessed. […] Next, RAW264.7 cells were stimulated with the cathelicidins at various concentrations for 2 h and 24 h, after which release of CCL2 (MCP-1), CCL5 (RANTES), CXCL10 (IP-10), TNFα and IL-10 was determined.
# (§4) Figure 2 Cathelicidin induced chemokine and cytokine release by RAW264.7 cells. RAW264.7 cells were incubated for 2 h and 24 h with cathelicidins (0.08 μM, 0.31 μM, 1.25 μM, 5 μM, and 20 μM), after which the supernatants were harvested and tested for release of CCL2 at 2 h (A) and 24 h (B), CCL5 at 24 h (C) and CXCL10 at 24 h (D). Dotted line represents average cytokine release of control samples. Results are presented as average +/− SEM (N = 3). Statistical differences were determined by Two-way ANOVA with Bonferroni post-hoc test.
# [2] = tested on: CXCL10 (IP-10) release by RAW264.7 cells; assay: Cathelicidin induced CXCL10 release; details: for Increase of CXCL10 secretion after 24 h stimulation: 20 μM peptide; for Summary class, chemokines CXCL10 (24 h): 24 h stimulation, peptide 0.08-20 μM, − = no significant effect, N = 3
# Procedure: as §1
# (§5) RAW264.7 cells were stimulated with 100 ng/ml LPS E. coli O111:B4, 1 μg/ml LTA S. aureus or 2.5 nM ODN-1826 in the presence of various concentrations of different cathelicidins. TNFα release was determined after 2 h for LPS and LTA stimulation and 24 h for ODN-1826 stimulation. CXCL10, CCL5 and IL-10 release were all determined after 24 h stimulation. As a control, RAW264.7 cells were stimulated for 2 h with 10^6 CFU/ml live or heat-killed (70 °C, 0.5 h) E. coli O78, followed by a double wash with cell culture medium and subsequent 22 h incubation in cell culture medium supplemented with 250 μg/ml gentamicin.
# as §2, §3, §4
# [3] = tested on: DNA-induced TLR-9 activation of RAW264.7 cells; assay: Enhancement of DNA (ODN-1826)-induced TNFα release; details: 2.5 nM ODN-1826, TNFα after 24 h; for Enhancement of DNA-induced TLR-9 activation, in words: 20 μM for the named peptides; for Summary class, TLR activation DNA: peptide 0.08-20 μM, − = no significant effect, N = 3
# Source text: TLR ligands: LPS Escherichia coli (E. coli) O111:B4 (TLR-4), LTA S. aureus (TLR-2), and ODN-1826 (TLR-9) were obtained from Invivogen (Toulouse, France). Chicken CATH-2 (chCATH-2) and PMAP-36 were synthesized by Fmoc-chemistry at China Peptides (CPC scientific, Sunnycale, CA) and all other cathelicidins were synthesized by Fmoc-chemistry at the Academic Centre for Dentistry Amsterdam (Amsterdam, The Netherlands) (Table 1). Purity of all peptides was >95% as analyzed by HPLC-MS.
# as §5, §2
# Figure 3 Effects of cathelicidins on TLR-2, -4, and -9 activation. LPS (100 ng/ml) (A), LTA (1 μg/ml) (B) or ODN-1826 (2.5 nM) (C) was mixed with different cathelicidins (0.08 μM, 0.31 μM, 1.25 μM, 5 μM, and 20 μM) before addition to the RAW264.7 cells. Supernatants were collected after 2 hours (A,B) or 24 hours (C) incubation and TNFα expression was measured. The dotted line represents the average cytokine release of control samples. Results are presented as average +/− SEM (N = 3). Statistical differences were determined by Two-way ANOVA with Bonferroni post-hoc test.
# All other peptides had no effect on the DNA-induced TLR-9 activation. To ensure that the increase of TNFα secretion was indeed enhancement of DNA-induced activation and not a result of direct induction by cathelicidins, TNFα release was determined after 24 h cathelicidin stimulation (see Supplementary Fig. S2D). None of the cathelicidins induced TNFα release after 24 h, (if anything, most cathelicidins caused a small reduction of TNFα secretion) indicating the increased activation is indeed enhancement of DNA-induced activation.
# [4] = tested on: CCL5 (RANTES) release by RAW264.7 cells; assay: Cathelicidin induced CCL5 release; details: for Induction of CCL5 secretion after 24 h stimulation: 20 μM peptide; for Summary class, chemokines CCL5 (24 h): 24 h stimulation, peptide 0.08-20 μM, − = no significant effect, N = 3
# Procedure: as §1, §5, §2, §3
# as §4, with “Results are presented as average +/− SEM (N = 3).” left out
Substance,Increase of CXCL10 secretion after 24 h stimulation [2],"Summary class, chemokines CXCL10 (24 h) [2]","Enhancement of DNA-induced TLR-9 activation, in words [3]","Summary class, TLR activation DNA [3]",also measured
"Ac-GRFRRLRKKTRKRLKKIGKVLKWIPPIVGSIPLGCG [PMAP-36, porcine α-helical cathelicidin, N-acetylated, 36 residues, charge +13]",–,–,–,–,Enhancement of CCL2 secretion after 2 h stimulation ([1]; 5 μM peptide): 3–4 fold
"GLLRKGGEKIGEKLKKIGQKIKNFFQKLVPQPEQ [CRAMP, murine cathelicidin, 34 residues, charge +6]",2–3 fold,↑ (↑ = significant increase at 20 μM),–,–,–
"KRRHWFPLSFQEFLEQLRRFRDQLPFP [eCATH-2, equine CATH-2, 27 residues, charge +4]",2–3 fold,↑ (↑ = significant increase at 20 μM),able to enhance DNA-induced TLR-9 activation,↑ (↑ = significant increase at 20 μM),–
"RFGRFLRKIRRFRPKVTITIQGSARF-NH2 [chCATH-2, chicken CATH-2, C-terminal amide, 26 residues, charge +9]",–,–,–,↑↑ (↑↑ = significant increase ≤5 μM),"Optimal concentration to induce DNA activation [3]: 1.25 µM; Enhancement of CCL2 secretion after 2 h stimulation ([1]; 20 μM peptide): 3–4 fold; Summary class, chemokines CCL2 (2 h) ([1]; peptide 0.08-20 μM): ↑ (↑ = significant increase at 20 μM); Induction of CCL5 secretion after 24 h stimulation [4]: 2–3 fold; Summary class, chemokines CCL5 (24 h) [4]: ↑ (↑ = significant increase at 20 μM)"
"RIIDLLWRVRRPQKPKFVTVWVR [PMAP-23, porcine α-helical cathelicidin, 23 residues, charge +6]",–,–,able to enhance DNA-induced TLR-9 activation,↑ (↑ = significant increase at 20 μM),–
"RLKELITTGGQKIGEKIRRIGQRIKDFFKNLQPREEKS [Peptide K9CATH, dog cathelicidin, 38 residues, charge +6]",2–3 fold,↑ (↑ = significant increase at 20 μM),–,–,"Induction of CCL5 secretion after 24 h stimulation [4]: 2–3 fold; Summary class, chemokines CCL5 (24 h) [4]: ↑ (↑ = significant increase at 20 μM)"
"RRRPRPPYLPRPRPPPFFPPRLPPRIPPGFPPRFPPRFP [PR-39, porcine proline-rich cathelicidin forming a polyproline helix, 39 residues, charge +10]",–,–,able to enhance DNA-induced TLR-9 activation,↑ (↑ = significant increase at 20 μM),"Effect on CCL2 secretion after 24 h stimulation, in words ([1]; 24 h, peptide 0.08-20 μM): non-significant"
"RVKRFWPLVPVAINTVAAGINLYKAIRRK [chCATH-3, chicken CATH-3, 29 residues, charge +7]",–,–,–,–,"Enhancement of CCL2 secretion after 2 h stimulation ([1]; 5 μM peptide): 3–4 fold; Enhancement of CCL2 secretion after 2 h stimulation ([1]; 20 μM peptide): 3–4 fold; Summary class, chemokines CCL2 (2 h) ([1]; peptide 0.08-20 μM): ↑↑ (↑↑ = significant increase ≤5 μM)"
